Test results as given in article PMC11571207, “Stereorandomized Oncocins with Preserved Ribosome Binding and Antibacterial Activity” (Journal of Medicinal Chemistry, 2024).
Where two headings read alike, the source gives them in different places. No end group written: not given here.

Legend:
E. cloacae = experiment: microbe, parasite or virus in culture; conditions: for MIC E. cloacae, 12.5% MHB: 12.5% MHB pH 7.4; for MIC E. cloacae, 12.5% MHB / MIC E. cloacae, full MHB: 16–20 h at 37 °C; for MIC E. cloacae, full MHB: full MHB pH 7.4; for MIC E. cloacae: supplement CSV
Procedure: (§1) Minimum inhibitory concentration assay
(§2) Antimicrobial activity was assayed against P. aeruginosa PAO1, K. pneumoniae NCTC418, E. coli W3110, A. baumannii ATCC 19606, methicillin-resistant S. aureus COL (MRSA), and for selected peptides on P. aeruginosa PA14 and the polymyxin-B-resistant derivative PA14 2P4, as well as the clinical isolates ZEM-1A and ZEM9A, K. pneumoniae OXA-48, S. aureus Newman, Enterobacter cloacae and Burkholderia cenocepacia. The minimal inhibitory concentration (MIC) was determined by using broth microdilution method. A colo ny of bacteria was picked and grown in Luria-Bertani (LB) medium overnight at 37°C. For E. coli BW25113 sbmA::kan the medium was supplemented with 25 mg/L of kanamycin. The next day, the culture was then regrown in LB medium to log phase (OD600 = 0.6 to 0.8), which lasted approximately 4 h, and diluted to an OD600 of 0.022 in the desired medium. Stock solutions of 1 mg/mL of the samples were prepared in sterilized milliQ water and diluted to the beginning concentration of 64 μg/mL in 300 μL Mueller Hinton (MH)-medium. The diluted samples were added to first well of 96-well microtiter plate (TPP, untreated, Faust Laborbedarf, AG, Schaffhausen) and diluted serially by ½. Finally, 4 μL of the bacterial suspension was inoculated into the sample solutions (150 μL/well) with a final inoculation of about 5∙10^5 CFU/mL. The plates were then incubated at 37°C for 15-18h. For each assay, sterility (broth only) and growth control (broth with bacterial inoculum, without antibiotics) were checked with two columns in the plate. The next day, 15 μL of 3-(4,5-dimethylthiazol-2-yl)-2,5-diphenyltetrazolium bromide (MTT) was added to each well of the plate, such a way that MIC was defined as the lowest concentration of the peptide that inhibited visible growth of the tested

K. pneumoniae OXA-48 = experiment: microbe, parasite or virus in culture; conditions: for MIC K. pneumoniae OXA-48, 12.5% MHB / MIC K. pneumoniae OXA-48, full MHB: carbapenem-resistant, 16–20 h at 37 °C; for MIC K. pneumoniae OXA-48, 12.5% MHB: 12.5% MHB pH 7.4; for MIC K. pneumoniae OXA-48, full MHB: full MHB pH 7.4; for MIC K. pneumoniae OXA-48: supplement CSV
Procedure: as §1, §2

[1] = system: P. aeruginosa PA14 2P4 (pmrB); experiment: microbe, parasite or virus in culture; conditions: for MIC P. aeruginosa PA14 2P4 (pmrB), 12.5% MHB / MIC P. aeruginosa PA14 2P4 (pmrB), full MHB: polymyxin B resistant strain, 16–20 h at 37 °C; for MIC P. aeruginosa PA14 2P4 (pmrB), 12.5% MHB: 12.5% MHB pH 7.4; for MIC P. aeruginosa PA14 2P4 (pmrB), full MHB: full MHB pH 7.4; for MIC P. aeruginosa PA14 2P4: supplement CSV
Procedure: as §1, §2

P. aeruginosa PA14 = experiment: microbe, parasite or virus in culture; conditions: for MIC P. aeruginosa PA14, 12.5% MHB: 12.5% MHB pH 7.4; for MIC P. aeruginosa PA14, 12.5% MHB / MIC P. aeruginosa PA14, full MHB: 16–20 h at 37 °C, two different duplicate MIC determinations; for MIC P. aeruginosa PA14, full MHB: full MHB pH 7.4; for MIC P. aeruginosa PA14: supplement CSV
Procedure: as §1, §2

P. aeruginosa ZEM-1A = experiment: microbe, parasite or virus in culture; conditions: for MIC P. aeruginosa ZEM-1A, 12.5% MHB / MIC P. aeruginosa ZEM-1A, full MHB: clinical isolate, 16–20 h at 37 °C, cells marked c: single measurement (in duplicates); for MIC P. aeruginosa ZEM-1A, 12.5% MHB: 12.5% MHB pH 7.4; for MIC P. aeruginosa ZEM-1A, full MHB: full MHB pH 7.4; for MIC P. aeruginosa ZEM-1A: supplement CSV, 12.5% MH pH 7.4
Procedure: as §1, §2

P. aeruginosa ZEM9A = experiment: microbe, parasite or virus in culture; conditions: for MIC P. aeruginosa ZEM9A, 12.5% MHB / MIC P. aeruginosa ZEM9A, full MHB: clinical isolate, 16–20 h at 37 °C; for MIC P. aeruginosa ZEM9A, 12.5% MHB: 12.5% MHB pH 7.4; for MIC P. aeruginosa ZEM9A, full MHB: full MHB pH 7.4; for MIC P. aeruginosa ZEM9A: supplement CSV
Procedure: as §1, §2

[2] = system: P. aeruginosa PA14 4.18 (pmrB); conditions: for MIC P. aeruginosa PA14 4.18 (pmrB), 12.5% MHB / MIC P. aeruginosa PA14 4.18 (pmrB), full MHB: polymyxin B resistant strain, 16–20 h at 37 °C; for MIC P. aeruginosa PA14 4.18 (pmrB), 12.5% MHB: 12.5% MHB pH 7.4; for MIC P. aeruginosa PA14 4.18 (pmrB), full MHB: full MHB pH 7.4; for MIC P. aeruginosa PA14 4.18: supplement CSV
human red blood cells = experiment: Hemolysis assay, minimum hemolytic concentration; conditions: for Haemolysis on hRBC, MHC: 2.5% human red blood cells (final) in 10 mM phosphate, 150 mM NaCl, pH 7.4, 25 °C, 4 h, visual inspection; for MHC human red blood cells: supplement CSV

| Sequence | MIC E. cloacae, 12.5% MHB (E. cloacae) | MIC E. cloacae, full MHB (E. cloacae) | MIC E. cloacae (E. cloacae; 12.5% MH pH 7.4) | MIC E. cloacae (E. cloacae; full MH pH 7.4) | MIC K. pneumoniae OXA-48, 12.5% MHB (K. pneumoniae OXA-48) | MIC K. pneumoniae OXA-48, full MHB (K. pneumoniae OXA-48) | MIC K. pneumoniae OXA-48 (K. pneumoniae OXA-48; 12.5% MH pH 7.4) | MIC K. pneumoniae OXA-48 (K. pneumoniae OXA-48; full MH pH 7.4) | MIC P. aeruginosa PA14 2P4 (pmrB), 12.5% MHB [1] | MIC P. aeruginosa PA14 2P4 (pmrB), full MHB [1] | MIC P. aeruginosa PA14 2P4 ([1]; 12.5% MH pH 7.4) | MIC P. aeruginosa PA14 2P4 ([1]; full MH pH 7.4) | MIC P. aeruginosa PA14, 12.5% MHB (P. aeruginosa PA14) | MIC P. aeruginosa PA14, full MHB (P. aeruginosa PA14) | MIC P. aeruginosa PA14 (P. aeruginosa PA14; 12.5% MH pH 7.4) | MIC P. aeruginosa PA14 (P. aeruginosa PA14; full MH pH 7.4) | MIC P. aeruginosa ZEM-1A, 12.5% MHB (P. aeruginosa ZEM-1A) | MIC P. aeruginosa ZEM-1A, full MHB (P. aeruginosa ZEM-1A) | MIC P. aeruginosa ZEM-1A (P. aeruginosa ZEM-1A) | MIC P. aeruginosa ZEM9A, 12.5% MHB (P. aeruginosa ZEM9A) | further results |
| --- | --- | --- | --- | --- | --- | --- | --- | --- | --- | --- | --- | --- | --- | --- | --- | --- | --- | --- | --- | --- | --- |
| VDKPPYLPRPRPPRRIYNR [sr5Cterm-Onc] (VDKPPYLPRPRPPRRIYNR-NH2; also: residues 15-19 stereorandomized (1:1 L/D mixture)) | 1 µg/mL | 32 µg/mL | 1 µg/mL | 32 µg/mL | 4 µg/mL | 32 µg/mL | 4 µg/mL | 32 µg/mL | 2 µg/mL | > 64 µg/mL | 2 µg/mL | >64 µg/mL | 8 µg/mL | > 64 µg/mL | 8 µg/mL | >64 µg/mL | 4 to 8 µg/mL | 64 µg/mL | 4 to 8 µg/mL | 8 µg/mL | MIC P. aeruginosa ZEM9A, full MHB (P. aeruginosa ZEM9A): > 64 µg/mL; MIC P. aeruginosa ZEM9A (P. aeruginosa ZEM9A; 12.5% MH pH 7.4): 8 µg/mL; MIC P. aeruginosa ZEM9A (P. aeruginosa ZEM9A; full MH pH 7.4): >64 µg/mL; MIC P. aeruginosa PA14 4.18 (pmrB), 12.5% MHB [2]: 8 µg/mL; MIC P. aeruginosa PA14 4.18 (pmrB), full MHB [2]: 64 µg/mL; MIC P. aeruginosa PA14 4.18 ([2]; 12.5% MH pH 7.4): 8 µg/mL; MIC P. aeruginosa PA14 4.18 ([2]; full MH pH 7.4): 64 µg/mL; Haemolysis on hRBC, MHC (human red blood cells): >1000 µg/mL; MHC human red blood cells (human red blood cells): >1000 µg/mL |
| VDKPPYLPRPRPPRRIYNR [sr8Cterm-Onc] (VDKPPYLPRPRPPRRIYNR-NH2; also: residues 12-19 stereorandomized (1:1 L/D mixture)) | 0.5 µg/mL | > 64 µg/mL | 0.5 µg/mL | >64 µg/mL | 16 µg/mL | 32 µg/mL | 16 µg/mL | 32 µg/mL | 2 µg/mL | > 64 µg/mL | 2 µg/mL | >64 µg/mL | 8 µg/mL | > 64 µg/mL | 8 µg/mL | >64 µg/mL | 4 to 8 µg/mL | 64 µg/mL | 4 to 8 µg/mL | 8 µg/mL | MIC P. aeruginosa ZEM9A, full MHB (P. aeruginosa ZEM9A): > 64 µg/mL; MIC P. aeruginosa ZEM9A (P. aeruginosa ZEM9A; 12.5% MH pH 7.4): 8 µg/mL; MIC P. aeruginosa ZEM9A (P. aeruginosa ZEM9A; full MH pH 7.4): >64 µg/mL; MIC P. aeruginosa PA14 4.18 (pmrB), 12.5% MHB [2]: 8 µg/mL; MIC P. aeruginosa PA14 4.18 (pmrB), full MHB [2]: 64 µg/mL; MIC P. aeruginosa PA14 4.18 ([2]; 12.5% MH pH 7.4): 8 µg/mL; MIC P. aeruginosa PA14 4.18 ([2]; full MH pH 7.4): 64 µg/mL; Haemolysis on hRBC, MHC (human red blood cells): >1000 µg/mL; MHC human red blood cells (human red blood cells): >1000 µg/mL |
